Patent US20130303377A1, “USE OF SINGLE AMINO ACIDS AT LOW CONCENTRATIONS FOR INFLUENCING THE LIFE PROCESSES OF CROPS” (GLOBACHEM, priority 2010, published 2013)

Key:
[1] = system: mature apple trees of the variety Jonagold (mutant King); experiment: Improvement of the coloring with apple, Example 1 (glutamine sprayed before picking); type: in vivo; details: for kg 1st picking: colored fruits; for Fruit weight: average over the total harvest
Experimental: This experiment was performed on mature apple trees of the variety Jonagold (mutant King). The sprayings were performed with an atomizer at 300 liter of water/ha. The spray liquid used contained in the first test 300 ppm wt of glutamine and in the second test with a multiple treatment each time 150 ppm wt glutamine. The spray liquid further contained surfactants and a UV filter.
apples of the trees in the test field were harvested in 3 times. Glutamine was used as active substance, in a first test 2 weeks before the expected first picking date, and in the second test first 2 weeks and then again 1 week before the expected harvest date. The dosages used are shown below. At harvest, the total yield, the kilos colored fruits which could be harvested in the first picking and the average fruit weight over the total harvest (in grams per apple fruit) were determined. The results are shown in Table 1, and compared with a control without treatment.

[2] = system: Jonagold; experiment: Improvement of the coloring with apple, Example 2; type: in vivo
Experimental: In an experiment similar to Example 1, glutamine was used 2 times on Jonagold, the first time 14 days before the picking and then a few days before the picking. The dosage of the treatment was this time 2 times 15 g/ha (each time with a concentration of 50 ppm wt in an atomisation of each time 300 liter of water per hectare). The % first picking was determined and is shown in Table 2, in comparison with a control test without treatment.

[3] = system: mature apple trees of the variety Jonagold, Jonagored mutant; experiment: Increase of both the yield and the coloring with apple, Example 3; type: in vivo
Experimental: This experiment was performed on mature apple trees of the variety Jonagold, Jonagored mutant. Unlike the two previous trials, the focus here is primarily on increasing the yield. To achieve this, the treatments have to be started much earlier in the season. The dose is hereby lower than in the two previous applications because the goal is here fruit set and growth inhibition, instead of coloring. One could suffice with two treatments, at the start of the growing season, but several applications over the entire growing season gives a more certain result. The applications in this test were started around the end of flowering and were repeated every 7 to 14 days, depending on the weather conditions. There were in total 7 treatments, more precisely on April 24, May 7, May 14, May 20, June 9, June 16 and June 24. The sprayings were performed with an atomiser.
Glutamine, each time at a concentration of 50 ppm wt in 300 liter water/ha, and thus a dose of 15 g/ha, was applied both separately and in combination with S-abscisic acid (ABA). In the combination test, ABA was administered at the first 2 sprayings of the season, and always at a concentration of 3.3 ppm in 300 l water/ha spraying liquid, which corresponds to a dosage of 1.0 g/ha of ABA. At the end of the season, the extension of the shoots was measured and the number of fruits per tree determined. Shortly after the end of the sprayings, on June 25, the average fruit diameter was also determined.

[4] = system: Jonagored; experiment: Improvement of the coloring with apple, Example 4; type: in vivo; details: glutamine 2.5 g/ha, 4 days before the pick
Text: In this experiment, glutamine was applied 4 days before the pick on a plot of Jonagored, and in a concentration of 8.3 ppm wt in 300 l/ha, which is equivalent to a dose of 2.5 g/ha of glutamine. In table 4 below the % of first picking is shown.

[5] = system: wheat seedlings; experiment: Growth inhibition with wheat; type: in vivo; details: for Growth increase (cm): one treatment; for Growth increase (cm) / % wrt control: after 10 days; for % wrt control: growth increase
Experimental: This experiment was performed in four repetitions on wheat seedlings. Per repetition six seedlings were sown in a jar and monitored. When the seedlings were about 15 cm high, they were treated once with the following treatments, and after 10 days the growth increase was measured. The dose is given in g/ha whereby the conversion from the concentration was done with a use of 300 l/ha.

[6] = system: plants; experiment: Strength of the response to one single amino acid as a function of dosage; type: in vivo; details: compared to the intermediate range of 5-15 g/ha
Text: The location of the peaks of the pattern, i.e. at which concentrations the strongest effects could be recorded, and the location of the valley between two peaks, i.e. the range wherein the response was again a little less, appeared however to depend on the choice of the amino acid and of the life process which one wishes to influence.

[7] = system: barley seedlings; experiment: Growth inhibition with barley; type: in vivo; details: 250 g/ha, after 8 days
Experimental: This experiment was performed in four repetitions on barley seedlings. Per repetition, six seedlings were sown in a jar and monitored. When the seedlings were about 15 cm high, they were treated once with the following treatments, and after 8 days the growth increase was measured. The dose is given in g/ha whereby the conversion from the concentration was done at a use of 300 I/ha.

[8] = system: plants; details: 500 ppm of glutamic acid; EP 1124419; cited from earlier work
[9] = system: plants; details: only glutamic acid; WO 00/25582; cited from earlier work
[10] = glutamine 2 × 45 g/ha, 2 weeks and 1 week before expected harvest date
[11] = glutamine 90 g/ha once, 2 weeks before expected first picking

## NC(=O)CC[C@H](N)C(=O)O [Glutamine, glutamine]
[1]; dual treatment (2 × 45 g/ha)
  Difference of first picking versus control: 3 kg
  Difference of first picking versus control (% of total harvest): 10%
[1]; [10]
  1st picking in % of the total harvest: 46%
  kg (total harvest): 39 kg
  kg 1st picking: 18 kg
[1]; glutamine 2 × 45 g/ha
  Fruit weight: 257 g
[1]; [11]
  1st picking in % of the total harvest: 41%
  kg (total harvest): 39 kg
  kg 1st picking: 16 kg
[1]; glutamine 90 g/ha once
  Fruit weight: 248 g
[1]; single treatment (90 g/ha)
  Increase of first picking versus control: 1 kg
  Increase of first picking versus control (% of total harvest): 5%
[2]; double treatment of glutamine, versus control
  Increase in the first picking, absolute percentage with respect to weight of total harvest: around 10%
[2]; extrapolated at a Jonagold yield of 60 tons/ha
  Increase of the first-picking portion of the harvest: at least 6 tons/ha
[2]; glutamine 2 × 15 g/ha, 14 days and a few days before the picking
  % 1st picking: 40%
[3]; end of season, glutamine 15 g/ha, 7 treatments
  Average Shoot length (cm): 25.6 cm
[3]; glutamine 15 g/ha, 7 treatments
  Fruit diameter (mm) on June 25: 43.7 mm
[3]; glutamine alone, 15 g/ha, 7 treatments
  Increase of fruits per tree versus control: 14 fruits per tree
[3]; glutamine alone, extrapolated at 1714 trees/ha and five apples per kilo
  Increased yield: ~5000 kg/ha
[3]; per tree, glutamine 15 g/ha, 7 treatments from end of flowering
  Number of fruits: 127
[4]
  % 1st picking: 55.8%

## N[C@@H](Cc1c[nH]cn1)C(=O)O [Histidine, histidine]
[5]; 2 g/ha
  Growth increase (cm): 10.0 cm
  % wrt control: 92%
[5]; 100 g/ha
  Growth increase (cm): 10.2 cm
  % wrt control: 94%
[5]; further experiments with only histidine, about 10 g/ha
  Strength of the growth inhibitory response: less than in the tests with the lower (2 g/ha) and higher (100 g/ha) dosages
[6]
  Strength of the response as a function of dosage: higher response in the range of 0.5-5 g/ha and in a range of 15-250 g/ha

## CC(C)(C)C(O)(CCc1ccc(Cl)cc1)Cn1cncn1 (stereo not drawn) [Tebuconazole, tebuconazole]
[7]; one treatment
  Growth increase (cm): 3.2 cm
[7]; growth increase
  % wrt control: 45%

## CCOC(=O)C1CC(=O)C(=C(O)C2CC2)C(=O)C1 (stereo not drawn) [Trinexapac-ethyl, trinexapac-ethyl, reference compound]
[5]; 250 g/ha
  Growth increase (cm): 7.8 cm
  % wrt control: 72%

## N[C@@H](CCC(=O)O)C(=O)O [glutamic acid]
[8]
  Effect on productivity of plants: only a small effect
[9]
  Yield of plants versus control test: did not yield any significant improvement
